Measured values: ChEMBL document CHEMBL2074349, “Rifampicin enhances anti-cancer drug accumulation and activity in multidrug-resistant cells” (Biochem Pharmacol, 1995)
Blank lines part the entries; values can stand above or below the molecule they belong to.

What was measured:
[1] = target: Multidrug resistance protein 1a (Rattus norvegicus) (UniProt Q6PSM0); assay: TP_TRANSPORTER: increase in Vinblastine intracellular accumulation (Vinblastine: 0.0125 uM, Rifamycin SV: 200 uM) in RHC1 cells; assay type: functional, cell-based
Chain of Multidrug resistance protein 1a (Rattus norvegicus) (Q6PSM0 as listed by the source): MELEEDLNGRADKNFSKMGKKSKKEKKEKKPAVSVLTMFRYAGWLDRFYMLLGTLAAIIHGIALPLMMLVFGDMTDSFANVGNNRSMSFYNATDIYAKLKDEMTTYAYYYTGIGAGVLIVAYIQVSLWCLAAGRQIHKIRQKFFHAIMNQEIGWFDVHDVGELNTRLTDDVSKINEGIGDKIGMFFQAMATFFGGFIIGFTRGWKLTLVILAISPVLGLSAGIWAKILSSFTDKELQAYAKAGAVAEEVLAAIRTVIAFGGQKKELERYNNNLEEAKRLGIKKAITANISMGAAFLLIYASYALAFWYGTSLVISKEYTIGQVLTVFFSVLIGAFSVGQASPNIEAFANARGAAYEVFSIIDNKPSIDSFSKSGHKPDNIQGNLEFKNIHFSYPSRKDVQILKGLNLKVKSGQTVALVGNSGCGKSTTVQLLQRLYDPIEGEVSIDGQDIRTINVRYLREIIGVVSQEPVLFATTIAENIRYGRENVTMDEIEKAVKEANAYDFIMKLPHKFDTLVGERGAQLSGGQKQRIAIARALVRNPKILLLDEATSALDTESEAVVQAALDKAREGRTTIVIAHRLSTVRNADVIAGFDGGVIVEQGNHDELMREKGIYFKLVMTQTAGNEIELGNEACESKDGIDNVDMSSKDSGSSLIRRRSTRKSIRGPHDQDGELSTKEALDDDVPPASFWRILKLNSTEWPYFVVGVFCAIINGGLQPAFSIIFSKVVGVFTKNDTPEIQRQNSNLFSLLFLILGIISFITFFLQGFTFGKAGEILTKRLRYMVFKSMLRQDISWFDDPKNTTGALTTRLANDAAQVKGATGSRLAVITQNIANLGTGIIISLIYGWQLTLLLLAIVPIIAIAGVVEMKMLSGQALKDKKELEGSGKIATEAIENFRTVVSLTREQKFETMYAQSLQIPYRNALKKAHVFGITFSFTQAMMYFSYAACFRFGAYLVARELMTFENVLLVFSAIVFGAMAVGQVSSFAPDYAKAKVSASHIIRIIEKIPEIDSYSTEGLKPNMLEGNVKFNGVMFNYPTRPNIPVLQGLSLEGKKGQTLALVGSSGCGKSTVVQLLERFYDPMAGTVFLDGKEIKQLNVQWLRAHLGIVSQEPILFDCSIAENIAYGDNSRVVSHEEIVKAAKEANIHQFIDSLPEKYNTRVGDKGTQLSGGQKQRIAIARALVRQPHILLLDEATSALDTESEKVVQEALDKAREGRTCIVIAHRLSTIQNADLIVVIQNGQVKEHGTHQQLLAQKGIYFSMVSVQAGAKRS

[2] = target: Multidrug resistance protein 1a (Rattus norvegicus) (UniProt Q6PSM0); assay: TP_TRANSPORTER: increase in Vinblastine intracellular accumulation (Vinblastine: 0.0125 uM, Rifamycin B: 200 uM) in RHC1 cells; assay type: functional, cell-based
[3] = target: ATP-dependent translocase ABCB1 (Homo sapiens, UniProt P08183); assay: TP_TRANSPORTER: inhibition of Azidopine photoaffinity labelling (Rifampicin: 200 uM) in membranes from K562 R7 cells; assay type: functional, cell membranes, Membrane; conditions: k562/r7, 200 µM
Chain of ATP-dependent translocase ABCB1 (P08183 whole entry): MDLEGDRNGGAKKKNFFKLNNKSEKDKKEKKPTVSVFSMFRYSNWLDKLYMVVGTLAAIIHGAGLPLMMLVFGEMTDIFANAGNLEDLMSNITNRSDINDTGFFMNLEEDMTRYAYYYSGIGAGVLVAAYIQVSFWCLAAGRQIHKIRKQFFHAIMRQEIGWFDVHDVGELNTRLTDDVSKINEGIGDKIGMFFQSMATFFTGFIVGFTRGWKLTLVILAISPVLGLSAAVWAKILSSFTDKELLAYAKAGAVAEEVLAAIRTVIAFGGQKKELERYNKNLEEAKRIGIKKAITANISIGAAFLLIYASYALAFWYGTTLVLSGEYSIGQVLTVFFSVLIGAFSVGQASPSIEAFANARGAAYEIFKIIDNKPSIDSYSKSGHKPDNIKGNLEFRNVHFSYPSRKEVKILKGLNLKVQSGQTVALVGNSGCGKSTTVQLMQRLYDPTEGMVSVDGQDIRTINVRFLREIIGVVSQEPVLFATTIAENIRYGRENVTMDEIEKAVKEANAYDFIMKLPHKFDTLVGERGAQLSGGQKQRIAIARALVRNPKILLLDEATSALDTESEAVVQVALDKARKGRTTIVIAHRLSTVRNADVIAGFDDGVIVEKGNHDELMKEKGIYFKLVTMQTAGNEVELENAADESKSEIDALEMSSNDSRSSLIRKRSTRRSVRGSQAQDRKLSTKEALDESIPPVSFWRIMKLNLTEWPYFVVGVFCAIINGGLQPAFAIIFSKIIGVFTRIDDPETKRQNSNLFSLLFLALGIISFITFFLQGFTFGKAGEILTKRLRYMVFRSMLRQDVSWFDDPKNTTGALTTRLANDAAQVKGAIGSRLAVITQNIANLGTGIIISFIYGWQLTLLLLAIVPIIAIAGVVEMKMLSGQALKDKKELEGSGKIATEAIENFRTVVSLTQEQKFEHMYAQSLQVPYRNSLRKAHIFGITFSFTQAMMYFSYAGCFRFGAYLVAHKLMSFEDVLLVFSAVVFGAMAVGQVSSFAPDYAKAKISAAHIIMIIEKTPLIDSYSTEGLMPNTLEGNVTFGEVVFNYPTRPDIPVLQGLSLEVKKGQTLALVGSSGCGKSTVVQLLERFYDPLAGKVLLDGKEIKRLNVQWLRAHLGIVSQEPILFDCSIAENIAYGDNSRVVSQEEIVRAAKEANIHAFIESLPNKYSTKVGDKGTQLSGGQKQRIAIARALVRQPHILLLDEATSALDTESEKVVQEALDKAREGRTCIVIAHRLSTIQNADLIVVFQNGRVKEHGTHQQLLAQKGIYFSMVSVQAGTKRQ

[4] = target: Multidrug resistance protein 1a (Rattus norvegicus) (UniProt Q6PSM0); assay: TP_TRANSPORTER: increase in Vinblastine intracellular accumulation (Vinblastine: 0.0125 uM, Rifampicin: 200 uM) in RHC1 cells; assay type: functional, cell-based

Activity [1]: inhibitor [+]
SMILES: CO[C@H]1/C=C/O[C@@]2(C)Oc3c(C)c(O)c4c(O)c(cc(O)c4c3C2=O)NC(=O)/C(C)=C\C=C\[C@H](C)[C@H](O)[C@@H](C)[C@@H](O)[C@@H](C)[C@H](OC(C)=O)[C@@H]1C

Activity [2]: is not an inhibitor [-]
SMILES: COC1/C=C/OC2(C)Oc3c(C)c(O)c4c(O)c(cc(OCC(=O)Nc5ccc(I)cc5)c4c3C2=O)NC(=O)/C(C)=C\C=C\C(C)C(O)C(C)C(O)C(C)C(OC(C)=O)C1C (centres undefined)

Activity [3]: inhibitor [+] | Activity [4]: inhibitor [+]
SMILES: CO[C@H]1/C=C/O[C@@]2(C)Oc3c(C)c(O)c4c(O)c(c(/C=N/N5CCN(C)CC5)c(O)c4c3C2=O)NC(=O)/C(C)=C\C=C\[C@H](C)[C@H](O)[C@@H](C)[C@@H](O)[C@@H](C)[C@H](OC(C)=O)[C@@H]1C [RIFAMPIN]
